How the values were obtained:
[1] = target: Mitogen-activated protein kinase 10 (Homo sapiens, UniProt P53779); test: Inhibition of JNK3
[2] = target: T1, Interleukin-1 receptor-associated kinase 4 (Homo sapiens, UniProt Q9NWZ3); test: Inhibition of IRAK4
T1 sequence (Q9NWZ3 whole entry): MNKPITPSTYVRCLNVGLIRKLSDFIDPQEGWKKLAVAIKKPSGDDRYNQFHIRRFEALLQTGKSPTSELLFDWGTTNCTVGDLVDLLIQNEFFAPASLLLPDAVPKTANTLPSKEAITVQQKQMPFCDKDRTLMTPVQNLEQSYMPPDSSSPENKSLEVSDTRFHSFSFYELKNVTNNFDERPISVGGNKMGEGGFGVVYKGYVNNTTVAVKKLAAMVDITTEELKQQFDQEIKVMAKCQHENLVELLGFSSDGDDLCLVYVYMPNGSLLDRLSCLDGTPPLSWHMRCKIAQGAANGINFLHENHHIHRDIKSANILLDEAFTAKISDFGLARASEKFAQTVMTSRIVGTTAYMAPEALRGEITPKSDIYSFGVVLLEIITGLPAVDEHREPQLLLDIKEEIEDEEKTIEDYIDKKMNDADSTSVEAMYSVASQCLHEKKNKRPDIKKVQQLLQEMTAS

[3] = target: T2, Mitogen-activated protein kinase 8 (Homo sapiens, UniProt P45983); test: Inhibition of JNK1 at 10 uM
[4] = target: T3, Mitogen-activated protein kinase 9 (Homo sapiens, UniProt P45984); test: Inhibition of JNK2 at 10 uM
Target sequence in this assay (P45984 whole entry, looked up): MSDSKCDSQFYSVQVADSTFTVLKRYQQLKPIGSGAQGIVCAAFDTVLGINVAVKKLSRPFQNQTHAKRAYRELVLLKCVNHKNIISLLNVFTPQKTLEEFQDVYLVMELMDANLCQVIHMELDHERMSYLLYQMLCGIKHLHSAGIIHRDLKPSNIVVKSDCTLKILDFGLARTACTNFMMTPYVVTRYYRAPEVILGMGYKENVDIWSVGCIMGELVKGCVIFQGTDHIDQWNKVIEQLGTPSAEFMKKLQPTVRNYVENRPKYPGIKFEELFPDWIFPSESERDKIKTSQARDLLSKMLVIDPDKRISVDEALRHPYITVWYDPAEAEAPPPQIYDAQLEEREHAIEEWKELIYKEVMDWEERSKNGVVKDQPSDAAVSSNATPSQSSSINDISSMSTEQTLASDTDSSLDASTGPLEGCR

[5] = target: T4, Interleukin-1 receptor-associated kinase 4 (Homo sapiens) (UniProt Q9NWZ3); test: Inhibition of IRAK4 at 10 uM
T4 sequence (whole entry): T1 sequence (Q9NWZ3 whole entry)

[6] = target: T3, Mitogen-activated protein kinase 9; test: Inhibition of JNK2
Target sequence in this assay (P45984 whole entry): as the sequence (P45984 whole entry, looked up) above

[7] = target: T2, Mitogen-activated protein kinase 8; test: Inhibition of JNK1

T2 sequence (P45983 whole entry): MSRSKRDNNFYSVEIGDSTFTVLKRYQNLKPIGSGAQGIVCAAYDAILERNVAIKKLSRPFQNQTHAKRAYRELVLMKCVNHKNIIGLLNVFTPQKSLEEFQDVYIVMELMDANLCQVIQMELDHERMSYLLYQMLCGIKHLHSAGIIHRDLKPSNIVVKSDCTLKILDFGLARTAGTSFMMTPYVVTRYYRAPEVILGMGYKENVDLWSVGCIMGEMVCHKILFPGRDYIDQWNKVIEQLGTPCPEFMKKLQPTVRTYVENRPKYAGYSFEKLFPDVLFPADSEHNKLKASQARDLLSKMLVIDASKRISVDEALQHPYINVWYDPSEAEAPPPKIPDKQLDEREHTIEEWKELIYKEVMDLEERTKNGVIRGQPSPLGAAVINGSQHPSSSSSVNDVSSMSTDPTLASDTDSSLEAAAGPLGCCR
Sequence of Mitogen-activated protein kinase 10 (P53779 whole entry): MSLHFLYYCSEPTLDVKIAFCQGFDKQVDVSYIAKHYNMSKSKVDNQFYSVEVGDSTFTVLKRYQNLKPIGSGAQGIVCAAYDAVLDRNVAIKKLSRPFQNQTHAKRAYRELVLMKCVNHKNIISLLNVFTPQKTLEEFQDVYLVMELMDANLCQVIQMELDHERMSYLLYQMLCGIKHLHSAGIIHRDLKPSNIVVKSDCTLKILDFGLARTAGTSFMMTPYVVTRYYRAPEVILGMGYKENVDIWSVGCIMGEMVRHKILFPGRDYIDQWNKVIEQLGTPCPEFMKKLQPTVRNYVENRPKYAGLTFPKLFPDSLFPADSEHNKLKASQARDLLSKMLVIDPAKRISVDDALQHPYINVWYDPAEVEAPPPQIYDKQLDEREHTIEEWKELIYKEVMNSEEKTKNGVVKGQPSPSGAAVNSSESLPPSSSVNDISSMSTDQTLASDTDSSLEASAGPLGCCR

Question: With `CN(c1nccc(-c2cnc3ccccn23)n1)C1CCCCC1` as the compound, how does the IC50 [1] read?
Answer: 3 nM

Question: What about the IC50 [2] of the same compound?
Answer: 400 nM

Question: Which results are given for `c1cc(NC2CCNCC2)nc(-c2cncc3ccccc23)c1`?
Answer: inhibition [3]: 5%; inhibition [4]: 0%; IC50 [2]: 1930 nM

Question: How did the inhibition [3] turn out when `c1cc(NC2CCNCC2)nc(-n2cnc3ccccc32)c1` was run?
Answer: 0%

Question: And the inhibition [4]?
Answer: 0%

Question: What about the IC50 [2] of the same compound?
Answer: 70 nM

Question: `c1ccn2c(-c3ccnc(NC4CCNCC4)c3)cnc2c1` was tested. Which inhibition [5] did it give?
Answer: 31%

Question: And the inhibition [3]?
Answer: 0%

Question: What about the inhibition [4] of the same compound?
Answer: 0%

Question: For `c1cc(NC2CCNCC2)nc(-c2cnc3ccccn23)c1`, which inhibition [3] is on record?
Answer: 39%

Question: What about the inhibition [4] of the same compound?
Answer: 15%

Question: And the IC50 [2]?
Answer: 35 nM

Question: `CN(c1nccc(-c2cnc3ccccn23)n1)C1CCNCC1` was tested. Which inhibition [3] did it give?
Answer: 33%

Question: What about the inhibition [4] of the same compound?
Answer: 35%

Question: What about the IC50 [2] of the same compound?
Answer: 200 nM

Question: With `c1cc(NC2CCNCC2)nc(-c2n[nH]c3ccccc23)c1` as the compound, how does the IC50 [6] read?
Answer: 1760 nM

Question: What about the IC50 [2] of the same compound?
Answer: 456 nM

Question: What about the IC50 [7] of the same compound?
Answer: 2080 nM

Question: `c1cc(NC2CCNCC2)nc(-n2ccc3ccccc32)c1` was tested. Which inhibition [5] did it give?
Answer: 30%

Question: What about the inhibition [3] of the same compound?
Answer: 0%

Question: And the inhibition [4]?
Answer: 0%

Question: Which inhibition [4] does the source give for `c1ccn2c(-c3ccnc(NC4CCNCC4)n3)cnc2c1` here?
Answer: 59%

Question: What about the IC50 [2] of the same compound?
Answer: 216 nM

Question: And the IC50 [7]?
Answer: 3800 nM

Question: For `CNC(=O)CN1CCC(Nc2nccc(-c3cnc4ccccn34)n2)CC1`, which IC50 [1] is on record?
Answer: 270 nM

Question: Which inhibition [3] does the source give for `c1ccn2c(-c3ccnc(OC4CCNCC4)n3)cnc2c1` here?
Answer: 24%

Question: And the inhibition [4]?
Answer: 30%

Question: What about the IC50 [2] of the same compound?
Answer: 1190 nM

Source: ChEMBL document CHEMBL1150395, “IRAK-4 inhibitors. Part II: a structure-based assessment of imidazo[1,2-a]pyridine binding” (Bioorg Med Chem Lett, 2008)
